Laboratory results published in patent publication US12173039B1, “TPL2 inhibiting agents, uses thereof, and detection of TPL2” (Washington University, priority 2021, dated 2024).
Entries after “also recorded” stand apart in the source; their conditions may differ.

How the values were obtained:
[1] = test system: p-MEK, p-ERK, and p-RSK; test: Immunoblots of MAPK pathway markers in human cell lines; format: cell-based; conditions: for p-MEK and p-ERK levels: serum-free
Procedure: (§1) Standard immunoblotting procedure was followed. Cells were washed twice with ice-cold 1×PBS and lysed with ice-cold triton-X lysis buffer (25 mM Tris, pH 7.4, 150 mM NaCl, 5 mM EDTA, 1% Triton-X) containing 1× protease (10 μg mL-1 leupeptin, 700 ng mL-1 pepstatin, 170 ng mL-1 aprotinin, 1 mM PMSF) and phosphatase (10 mM NaF, 1 mM Na3VO4, 1 mM Na4P2O^7, 5 mM Na b-glycerophosphate) inhibitors. Lysates were quantified by Bradford assay (Thermo Scientific), normalized for concentration, and reduced and denatured with 6×SDS sample buffer followed by boiling for 5 minutes. 20-40 μg of protein per sample was resolved by SDS-PAGE, blotted on PVDF membrane and probed with primary antibodies (Cell Signaling Technologies: p-ERK1/2 (#4370), p-MEK1/2 (#9154), ERK1/2 (#4695), MEK1/2 (#8727), p-p105 (#4806), NFS2KB1 p105/p50 (#3035), p-IRAK4 (#11927), IRAK4 (#4363), ubiquitin (#43124), anti-HA (#3724), p-p90RSK (#11989), RSK1/2/3 (#9355), p-TPL2 (#4491), PARP (#9532), p-B-RAF S445 (#2696), BRAF (#9433S). Santa Cruz Biotechnology: GAPDH (#sc-32233), p-p65 S536 (#sc101752). Thermo Fisher Scientific: p-55 TPL2 (#PA5-36635). EMD Millipore: IRAK4 (#07-418). R&D systems: TPL2/MAP3K8 (#MAB4586). Novus Biologicals: anti-AU1 (#NB600-453). Abcam: p-p65 S276 (#ab194726)). Membranes were incubated with appropriate HRP-conjugated secondary antibodies (anti-mouse or anti-rabbit, (1:5000 dilution), Jackson Laboratory) and imaged using chemiluminescent substrate. Additional steps for immunoprecipitation include incubation of soluble fraction lysate with anti-HA magnetic beads (Thermo Scientific cat #88837) overnight at 4° C., washing, and elution using 1×SDS sample buffer and boiling as mentioned in manufacturer's protocol.

[2] = test system: serum-response element (SRE); test: Serum-response element (SRE) luciferase reporter assay; format: cell-based, human; conditions: for SRE reporter activity (MAPK cascades): KRAS-mutant HPAC, MIA Paca-2, and Pa01C cells
Procedure: (§2) Cells stably expressing plasmid encoding serum-response-element (SRE) or NFKB promoter driven Firefly luciferase and constitutive Renilla luciferase were seeded at equal density per well and treatment was initiated the next day for 16-24 duration. Alternatively, 293T reporter cells were transfected in duplicate or triplicate with 1 μg of appropriate plasmid DNA. Medium was replaced 16-18 hours later and at 48 hours post-transfection reporter activity was measured using Dual-Glo® Luciferase Assay System. Data was acquired using SpectraMax i3Microplate Reader and analysis was performed by calculating ratio of firefly:renilla. Values were normalized to control and graphed using GraphPad Prism v7/8 software.

[3] = test system: IL1B; test: qRT-PCR of IL1B in HEK T/tH KRAS^G12V cells; format: cell-based, human; conditions: 16 hours
Procedure: Total RNA was isolated using RNAzol RT (Sigma), cDNA was generated using High Capacity cDNA reverse transcription kit (Thermo Fisher Scientific, 4368814) and qPCR was performed using SYBR-Green reagent (Applied Biosystems, cat #4309155). All experiments were performed in biological duplicates or triplicates (n=2,3).

[4] = patients with refractory hematologic malignancies; cited from earlier work
[5] = test system: p-p105, p-p65; test: Immunoblots of NF-κB markers in PDAC cells; format: cell-based, human
Procedure: as §1

[6] = test system: TLR9 and p-IRAK4 interaction; test: Proximity ligation assay (PLA); format: cell-based, human; conditions: 3 PDAC lines; 10 μM, 16 hours
Procedure: PLA was performed using Duolink® in situ Red Starter Kit Mouse/Rabbit (DUO92101, Sigma) per manufacturer's protocol. Briefly, cells were seeded on cover slips in 6 well plate at ˜50% confluency per well. Next day cells were treated with SN-38 (10 μM) and 16 hours later PLA was performed using p-IRAK4 (ABNOVA) and TLR9 (CST) primary antibodies. Stained cells were imaged using Nikon C2+ fluorescent microscope paired with NIS-Element software. Number of puncta per field was quantitated for six 400× fields per condition using Find Maxima tool in ImageJ software. Data was exported and graphed in GraphPad Prism v8.

[7] = test system: Hs695T cells; test: Drug response and viability assay, Hs695T; format: cell-based, human
Procedure: Cells were seeded at 1500-2500 cells per well in triplicates, in 96 well format. Next day, appropriate inhibitor was added in serial dilution from 1.00×102 μM or indicated single doses. Vehicle (DMSO) was added to match volume of inhibitor used for highest concentration. After 96-120 hours, 5× AlamarBlue® reagent (resazurin sodium salt, Sigma) was added to wells and incubated for 2-4 hours. Fluorescence at 585 nm (excitation 555 nm) was measured by SpectraMax i3 Microplate Reader. Raw values were normalized to vehicle, analyzed and graphed using GraphPad Prism v7/8 software.

[8] = test system: poly (ADP-ribose) polymerase (PARP); test: Immunoblot of PARP cleavage; format: cell-based, human; conditions: PDAC lines; cotreatment with SN-38, 16 hours
Procedure: as §1, with “Membranes were incubated with appropriate HRP-conjugated secondary antibodies (anti-mouse or anti-rabbit, (1:5000 dilution), Jackson Laboratory) and imaged using chemiluminescent substrate. Additional steps for immunoprecipitation include incubation of soluble fraction lysate with anti-HA magnetic beads (Thermo Scientific cat #88837) overnight at 4° C., washing, and elution using 1×SDS sample buffer and boiling as mentioned in manufacturer's protocol.” left out

[9] = test system: orthotopic KI tumors; test: Orthotopic implantation of murine KI PDAC cells; format: in vivo; conditions: KI tumors in syngeneic FVB/NJ mice; 30 mg/kg, 14 days
Procedure: For subcutaneous xenograft, approximately 5 million cells per flank were implanted into 6-week-old athymic nude mice (NU/J, Jackson Laboratory). When applicable, treatment with drug compound was initiated when tumors were palpable. FIRINOX (25 mg/kg 5-FU, 17.5 mg/kg irinotecan, and 3.35 mg/kg oxaliplatin) was administered via intraperitoneal injection weekly in 50 μL PBS. TPL2i was administered by intraperitoneal injection at 10 mg/kg in 40 μL DMSO, 5 days per week. Mice in the control group were treated with vehicle. Tumor volume was calculated as width^2×(length×0.5). Tumors were measured and mice were weighed 3 days per week. For orthotopic implantation, murine KI PDAC cells were injected into the pancreas of 7-week-old female FVB/NJ mice (Jackson Laboratory), as previously described (see e.g., Kim et al. (2009) Nat Protoc. 4 (11): 1670-1680). Six days after implantation, treatment with vehicle, FIRINOX (same dose as above), or TPL2i (30 mg/kg) was initiated for 14 days, at which time all mice were sacrificed. In vivo tumor progression was monitored using ultrasound (VScan, GE Healthcare) with final day representative tumor images shown.

[10] = test system: HPNE-KRAS^G12D cells, HEKT/tH-KRAS^G12V cells, conventional PDAC lines, and PDCLs; test: Anchorage independent soft agar growth assay, human KRAS-mutant lines; format: cell-based; conditions: HPNE-KRAS^G12D, HEKT/tH-KRAS^G12V, conventional PDAC lines, PDCLs
Procedure: Cells were seeded at 5000-15000 cells in 0.3% noble agar-DMEM suspension per well, in triplicate, in 24 well plate. For drug treatment, compound was added to cell suspension at 1× concentration. Seeded cells were fed with fresh 0.6% agar-DMEM mix once every 7-12 days. […] After 3-6 weeks, colonies were counted under microscope and imaged. Colony count was normalized to control and graphed in GraphPad Prism v7/8.

[11] = test system: NF-κB reporter activity; test: NF-κB luciferase reporter assay; format: cell-based, human; conditions: KRAS-mutant PDAC cells (PANC-1); serial dilutions from 20 μM; 18 hours
Procedure: as §2

[12] = test system: IGROV1 cells; test: Clonogenic 2D assay, IGROV1; format: cell-based, human
Procedure: (§3) Cells were seeded at 500-1000 cells per well (6 well plate format) or 200-1000 cells per well (12 well format) in 10% serum media. For drug treatment, compound was added at time of seeding at indicated concentration. Media was replenished as needed over course of incubation. After 3-5 weeks, colonies were fixed with 4% formaldehyde, stained with 0.5% crystal violet and scanned using document scanner. Images were quantified using particle analyzer on ImageJ software and values were normalized to vehicle.

[13] = test system: IGROV1 cells; test: Cell proliferation assay, IGROV1; format: cell-based, human
Procedure: (§4) Cells were seeded in triplicate or quadruplicate at indicated density per well. When applicable, appropriate drug compound was added to cells the next day. Viable cells were counted using trypan blue dye exclusion and BioRad TC20 Automated Cell Counter at each time point.

[14] = test system: KRAS mutant cell lines; test: Clonogenic 2D assay, KRAS-mutant and PDAC lines; format: cell-based, human; conditions: HPNE-KRAS^G12D, HEKT/tH-KRAS^G12V, conventional PDAC lines, PDCLs
Procedure: as §3

[15] = test system: LPS-induced TNF-α production; conditions: human monocytes; cited from earlier work
[16] = test system: Hs695T cells; test: Cell proliferation assay, Hs695T; format: cell-based, human
Procedure: as §4

[17] = HPAC cells, 16 hours, 10% serum

## recombinant hIL-1B: recombinant human IL-1B
[1]; HEK T/H, HPAC, and Pa01C cells, 100 ng/ml
  p-IRAK4, p-TPL2, p-MEK, p-ERK, and p-RSK: upregulated

## CCCS(=O)(=O)Nc1ccc(F)c(C(=O)c2c[nH]c3ncc(Cl)cc23)c1F [PLX-4720]
[2]
  SRE reporter activity (MAPK cascades): paradoxically hyperactivate

## CC(C)(C)c1nc(-c2cccc(NS(=O)(=O)c3c(F)cccc3F)c2F)c(-c2ccnc(N)n2)s1 [dabrafenib]
[2]
  SRE reporter activity (MAPK cascades): paradoxically hyperactivate

## CS(=O)(=O)N1CCN(Cc2cc3nc(-c4cccc5[nH]ncc45)nc(N4CCOCC4)c3s2)CC1 [GDC-0941]
[3]
  IL-1B production (IL1B expression by qRT-PCR): no effect

## Cc1cc(-c2nc(C(=O)Nc3cc4oc(N5CCOCC5)nc4nc3N3CC[C@@H](O)C3)co2)ccn1 [CA-4948, N-[5-[(3R)-3-hydroxypyrrolidin-1-yl]-2-morpholin-4-yl-[1,3]oxazolo[4,5-b]pyridin-6-yl]-2-(2-methylpyridin-4-yl)-1,3-oxazole-4-carboxamide]
[4]
  patients developing grade 1-2 neutropenia: 23%
  tolerability in clinical trial: rather well tolerated

## CCc1c2c(nc3ccc(O)cc13)-c1cc3c(c(=O)n1C2)COC(=O)[C@]3(O)CC [SN-38]
[1]; multiple PDAC lines, 10 μM, 16 hours, compared with 4 other chemotherapeutic agents
  induction of p-ERK, p-MEK, p-RSK, p-TPL2 and p-IRAK4: most potent in inducing
[5]; PDAC lines after chemotherapy
  NF-κB induction (p-p105): also induced
[6]
  TLR9 and p-IRAK4 interaction: markedly increased

## CCCS(=O)(=O)Nc1ccc(F)c(C(=O)c2c[nH]c3ncc(-c4ccc(Cl)cc4)cc23)c1F [PLX4032]
[7]
  viability: modest growth suppressive effect

## N#Cc1cnc2cnc(NCc3cccnc3)cc2c1Nc1ccc(F)c(Cl)c1 [TPL2i, 4-[(3-Chloro-4-fluorophenyl)amino]-6-[(3-pyridinylmethyl)amino]-1,7-naphthyridine-3-carbonitrile]
[8]
  PARP cleavage: increased
[9]
  growth of orthotopic tumors: effective in significantly suppressing growth
[1]; 293T cells expressing KRAS^G12V, 24 hours
  p-MEK and p-ERK levels: dose-dependently suppressed
[1]; 293T cells transfected with oncogenic BRAF^V600E, 24 hours
  p-MEK and p-ERK: neither TPL2i nor IRAK4i suppressed
[1]; BxPc-3 PDAC line (BRAF mutation, WT KRAS)
  p-MEK and p-ERK / MAPK activity: neither TPL2i nor IRAK4i suppressed and not
[1]; HEK T/tH cells with CM from HEK-T/tH KRAS^G12V cells
  conditioned medium-induced p-TPL2, p-IRAK4, p-MEK, and p-ERK levels: completely blocked
[1]; [17]
  Gemcitabine-induced p-MEK and p-ERK levels: suppressible
[1]; Hs695T cells (BRAF^V600E, MAP3K8^E188K), 24 hours, 10% serum
  p-ERK and p-MEK / MAPK activity: significantly suppressed
[1]; IGROV1 (MAP3K8^R442H), 1 μM, 2 hours
  p-MEK, p-ERK, and p-RSK / MAPK activity: completely blocked; also recorded: completely abolished
[1]; PDAC lines, cotreatment, 16 hours
  SN-38-induced p-MEK, p-ERK, and p-RSK: significantly attenuated
[1]; Pa01C cells, incremental doses
  p-BRAF: without affecting
  p-MEK and p-ERK: dose-dependently blocked
[1]; multiple KRAS-mutant PDAC lines, 36 hours
  p-MEK and p-ERK levels: dose-dependently suppressed
[10]
  3-dimensional (3D) AI growth: dose-dependently suppressed
[11]
  NF-κB reporter activity: dose-dependently suppressed
[12]
  colony forming ability: significantly decreased
[13]
  proliferation: significantly decreased
[2]; [17]
  Gemcitabine-induced SRE activity: suppressible
[2]
  SRE reporter activity (MAPK cascades): dose-dependently suppressed
[7]
  viability: suppressed
[14]
  2D clonogenic growth: dose-dependently suppressed
[15]
  LPS-induced TNF-α production: can suppress
[16]
  in vitro proliferation: significantly suppressed
[5]; 3 out of 4 cell lines
  p-p65 at S276: potently suppressed
[5]; PDAC cell lines
  p50 processing: did not lead to increased p50 processing
  p-p65 at S536: not
[5]; PDAC cell lines, TPL2 inhibition
  p-p105: dose-dependently suppressed
[5]; Pa01C cells
  p-p105 in SN-38-treated cells: additionally suppressed

## CC(C)Nc1cc(-c2c[nH]c(C(=O)N[C@H](CO)c3cccc(Cl)c3)c2)c(Cl)cn1 [ulixertinib]
[3]
  IL-1B production (IL1B expression by qRT-PCR): significantly abrogated

## O=C(Nc1cc(C(F)(F)F)cc(C(F)(F)F)c1)c1cc(Cl)ccc1O [IMD-0354]
[2]; HPAC cells
  SRE-driven luciferase reporter activity: dose-dependent suppression
